Experimental data published in paper PMC12306498, “Microwave-assisted synthesis of tubulin assembly inhibitors as anticancer agents by aryl ring reversal and conjunctive approach” (RSC Medicinal Chemistry, 2025).
Where “and” joins values, the source holds several entries; their conditions need not be identical. Equal entries are not always repeated. Where two headings read alike, the source gives them in different places.

Tests used:
tubulin [1] = experiment: Inhibition of tubulin polymerization (tubulin assembly, turbidity at 350 nm); type: biochemical; settings: tubulin at 10 μM, read-out: Tubulin IC50 ± SD
Protocol: The assembly reaction mixtures contained 0.8 M monosodium glutamate (pH 6.6 with HCl in a 2 M stock solution), 10 μM tubulin, 4% (v/v) DMSO, and varying concentrations of drug. Following a 15 min preincubation at 30 °C, samples were chilled on ice, GTP to 0.4 mM was added, and turbidity development was followed at 350 nm in a temperature-controlled recording spectrophotometer for 20 min at 30 °C. The extent of reaction was measured. Full experimental details were previously described.[35]

tubulin [2] = experiment: Inhibition of [3H]colchicine binding to tubulin; settings: for Colch. binding (% ± SD): inhibition of [3H]colchicine binding, tubulin, [3H]colchicine, inhibitor at 1, 5 and 5 μM
Protocol: The reaction mixtures contained 1.0 μM tubulin, 5.0 μM [^3H]colchicine, and 5.0 or 1.0 μM inhibitor, as indicated, and were incubated for 10 min at 37 °C. Complete details were described previously.[36]

[3] = tested on: MCF-7 human breast carcinoma cells; experiment: MCF-7 cell growth inhibition; type: cell-based; settings: read-out: MCF-7 IC50 ± SD
[4] = Homo sapiens, MCF7, cells grown for 96 h
[5] = Homo sapiens, MCF7, 96 h, cells grown for 96 h

| Compound | IC50 (tubulin [1]) [nM] | Colch. binding (% ± SD) (tubulin [2]) | IC50 [3, 4] [nM] | IC50 [3, 5] [nM] | IC50 ([3]; cells grown for 96 h) [nM] | Inhibition of [3H]colchicine binding (tubulin [2]; inhibitor at 1 μM, tubulin 1 μM, [3H]colchicine 5 μM) [%] |
| --- | --- | --- | --- | --- | --- | --- |
| COc1cc(C(=O)c2cn(-c3ccccn3)cc2-c2ccc(Cl)cc2)cc(OC)c1OC [Compound 6, (4-(4-Chlorophenyl)-1-(pyridin-2-yl)-1H-pyrrol-3-yl)(3,4,5-trimethoxyphenyl)methanone] | 520 ± 5 | 66 ± 3% | 340 ± 60 |  |  |  |
| COc1cc(C(=O)c2cn(-c3ncccn3)cc2-c2ccc(Cl)cc2)cc(OC)c1OC [Compound 20, (4-(4-Chlorophenyl)-1-(pyrimidin-2-yl)-1H-pyrrol-3-yl)(3,4,5-trimethoxyphenyl)methanone] | 760 ± 100 | 69 ± 4% |  | 68 ± 10 |  |  |
| COc1cc(C(=O)c2cn(-c3cccnc3)cc2-c2ccc(C)cc2)cc(OC)c1OC [Compound 9, (1-(Pyridin-3-yl)-4-(4-tolyl)-1H-pyrrol-3-yl)(3,4,5-trimethoxyphenyl)methanone] | 1900 ± 200 | 20 ± 5% | 670 ± 200 |  |  |  |
| COc1cc(C(=O)c2cn(-c3ncccn3)cc2-c2ccc(N3CCCCC3)cc2)cc(OC)c1OC [Compound 24, (4-(4-(Piperidin-1-yl)phenyl)-1-(pyrimidin-2-yl)-1H-pyrrol-3-yl)(3,4,5-trimethoxyphenyl)methanone] | 630 ± 40 | 35 ± 2% | 112 ± 7.7 |  |  |  |
| COc1cc(C(=O)c2cn(-c3ncccn3)cc2-c2ccc([N+](=O)[O-])cc2)cc(OC)c1OC [Compound 21, (4-(4-Nitrophenyl)-1-(pyrimidin-2-yl)-1H-pyrrol-3-yl)(3,4,5-trimethoxyphenyl)methanone] | 1300 ± 200 | 34 ± 1% | 450 ± 100 |  |  |  |
| COc1cc(C(=O)c2cn(-c3ncccn3)cc2/C=C/c2ccccc2)cc(OC)c1OC [Compound 23, (E)-(1-(pyrimidin-2-yl)-4-styryl-1H-pyrrol-3-yl)(3,4,5-trimethoxyphenyl)methanone] | 770 ± 30 | 65 ± 5% | 270 ± 10 |  |  |  |
| COc1cc(C(=O)c2cn(-c3ncccn3)cc2-c2ccc(F)cc2)cc(OC)c1OC [Compound 18, (4-(4-Fluorophenyl)-1-(pyrimidin-2-yl)-1H-pyrrol-3-yl)(3,4,5-trimethoxyphenyl)methanone] | 2400 ± 80 | 70 ± 1% | 150 ± 7 |  |  |  |
| COc1cc(C(=O)c2cn(-c3ncccn3)cc2-c2ccc(N(C)C)cc2)cc(OC)c1OC [Compound 22, (4-(4-(Dimethylamino)phenyl)-1-(pyrimidin-2-yl)-1H-pyrrol-3-yl)(3,4,5-trimethoxyphenyl)methanone] | 680 ± 100 | 80 ± 0.2% | 10 |  |  |  |
| COc1ccc(-c2cn(-c3cccnc3)cc2C(=O)c2cc(OC)c(OC)c(OC)c2)cc1 [Compound 10, (4-(4-Methoxyphenyl)-1-(pyridin-3-yl)-1H-pyrrol-3-yl)(3,4,5-trimethoxyphenyl)methanone] | 840 ± 20 | 29 ± 0.8% | 758 ± 9.3 |  |  |  |
| COc1cc(OC)cc(-c2cn(-c3ccccn3)cc2C(=O)c2cc(OC)c(OC)c(OC)c2)c1 [Compound 8, (4-(3,5-Dimethoxyphenyl)-1-(pyridin-2-yl)-1H-pyrrol-3-yl)(3,4,5-trimethoxyphenyl)methanone] | 1600 ± 200 | 21 ± 5% | 2200 ± 400 |  |  |  |
| COc1cc(C(=O)c2cn(-c3ccccn3)c3ccc(Cl)cc23)cc(OC)c1OC [Compound 25, (5-Chloro-1-(pyridin-2-yl)-1H-indol-3-yl)(3,4,5-trimethoxyphenyl)methanone] | 1500 ± 300 | 36 ± 4% |  | 42 | 41.7 ± 2.6 |  |
| COc1cc(C(=O)c2cn(-c3ccccn3)cc2-c2ccc(C)cc2)cc(OC)c1OC [Compound 3, (1-(Pyridin-2-yl)-4-(4-tolyl)-1H-pyrrol-3-yl)(3,4,5-trimethoxyphenyl)methanone] | 500 ± 100 | 59 ± 0.9% | 1500 ± 200 |  |  |  |
| COc1cc(OC)cc(-c2cn(-c3ncccn3)cc2C(=O)c2cc(OC)c(OC)c(OC)c2)c1 [Compound 16, (4-(3,5-Dimethoxyphenyl)-1-(pyrimidin-2-yl)-1H-pyrrol-3-yl)(3,4,5-trimethoxyphenyl)methanone] | 1100 ± 60 | 25 ± 5% | 780 ± 40 |  |  |  |
| COc1cc(C(=O)c2cn(-c3cccnc3)cc2-c2ccc(N(C)C)cc2)cc(OC)c1OC [Compound 13, (4-(4-(Dimethylamino)phenyl)-1-(pyridin-3-yl)-1H-pyrrol-3-yl)(3,4,5-trimethoxyphenyl)methanone] | 3400 ± 300 | 9.6 ± 4% | 1000 ± 100 |  |  |  |
| COc1ccc(-c2cn(-c3ncccn3)cc2C(=O)c2cc(OC)c(OC)c(OC)c2)cc1 [Compound 15, (4-(4-Methoxyphenyl)-1-(pyrimidin-2-yl)-1H-pyrrol-3-yl)(3,4,5-trimethoxyphenyl)methanone] | 1100 ± 100 | 65 ± 5% | 95 ± 20 |  |  |  |
| COc1cc(C(=O)c2cn(-c3ccccn3)cc2-c2ccc(C(F)(F)F)cc2)cc(OC)c1OC [Compound 5, (1-(Pyridin-2-yl)-4-(4-(trifluoromethyl)phenyl)-1H-pyrrol-3-yl)(3,4,5-trimethoxyphenyl)methanone] | 2000 ± 100 | 3.2 ± 5% | 652 ± 12.6 |  |  |  |
| COc1cc(C(=O)c2cn(-c3ncccn3)c3ccc(C#N)cc23)cc(OC)c1OC [Compound 29, 1-(Pyrimidin-2-yl)-3-(3,4,5-trimethoxybenzoyl)-1H-indole-5-carbonitrile] | 1300 ± 70 | 42 ± 5% |  | 230 ± 7 |  |  |
| COc1cc(C(=O)c2cn(-c3cccnc3)c3ccc(Cl)cc23)cc(OC)c1OC [Compound 26, (5-Chloro-1-(pyridin-3-yl)-1H-indol-3-yl)(3,4,5-trimethoxyphenyl)methanone] | 1500 ± 300 | 23 ± 4% |  | 306 ± 13.4 |  |  |
| COc1cc(C(=O)c2cn(-c3cccnc3)cc2-c2ccc(C(F)(F)F)cc2)cc(OC)c1OC [Compound 12, (1-(Pyridin-3-yl)-4-(4-(trifluoromethyl)phenyl)-1H-pyrrol-3-yl)(3,4,5-trimethoxyphenyl)methanone] | > 20000 |  | 3900 ± 70 |  |  |  |
| COc1cc(C(=O)c2cn(-c3ncccn3)c3ccc(F)cc23)cc(OC)c1OC [Compound 28, (5-Fluoro-1-(pyrimidin-2-yl)-1H-indol-3-yl)(3,4,5-trimethoxyphenyl)methanone] | 590 ± 100 | 45 ± 0.8% |  | 73 ± 4 |  |  |
| COc1cc(C(=O)c2cn(-c3ncccn3)cc2-c2ccc(C)cc2)cc(OC)c1OC [Compound 14, (1-(Pyrimidin-2-yl)-4-(4-tolyl)-1H-pyrrol-3-yl)(3,4,5-trimethoxyphenyl)methanone] | 1300 ± 40 | 54 ± 3% | 170 ± 50 |  |  |  |
| COc1ccc2c(c1)c(C(=O)c1cc(OC)c(OC)c(OC)c1)cn2-c1ncccn1 [Compound 30, (5-Methoxy-1-(pyrimidin-2-yl)-1H-indol-3-yl)(3,4,5-trimethoxyphenyl)methanone] | 380 ± 40 | 71% and 71 ± 5% |  | 220 ± 60 |  |  |
| COc1cc(C(=O)c2cn(-c3ncccn3)cc2-c2ccc(C(F)(F)F)cc2)cc(OC)c1OC [Compound 19, (1-(Pyrimidin-2-yl)-4-(4-(trifluoromethyl)phenyl)-1H-pyrrol-3-yl)(3,4,5-trimethoxyphenyl)methanone] | 2800 ± 100 | 18 ± 4% | 530 |  |  |  |
| COc1ccc(/C=C\c2cc(OC)c(OC)c(OC)c2)cc1O [CA4, combretastatin A-4, reference compound] |  |  |  |  |  | 78 |
| COc1cc(C(=O)c2cn(-c3ncccn3)c3ccc(Cl)cc23)cc(OC)c1OC [Compound 27, (5-Chloro-1-(pyrimidin-2-yl)-1H-indol-3-yl)(3,4,5-trimethoxyphenyl)methanone] | 1000 ± 90 | 34 ± 5% |  | 77 ± 10 |  |  |
| COc1cc(C(=O)c2cn(-c3cccnc3)cc2-c2ccc(Cl)cc2)cc(OC)c1OC [Compound 11, (4-(4-Chlorophenyl)-1-(pyridin-3-yl)-1H-pyrrol-3-yl)(3,4,5-trimethoxyphenyl)methanone] | 1500 ± 200 | 29 ± 4% | 1500 ± 400 |  |  |  |
| COc1cc(C(=O)c2cn(-c3ccccn3)cc2-c2ccc(N(C)C)cc2)cc(OC)c1OC [Compound 7, (4-(4-(Dimethylamino)phenyl)-1-(pyridin-2-yl)-1H-pyrrol-3-yl)(3,4,5-trimethoxyphenyl)methanone] | 430 ± 40 | 72% and 72 ± 0.2% | 120 ± 40 |  |  |  |
| COc1cc(C(=O)c2cn(-c3ncccn3)cc2-c2cc(OC)c(OC)c(OC)c2)cc(OC)c1OC [Compound 17, (1-(Pyrimidin-2-yl)-4-(3,4,5-trimethoxyphenyl)-1H-pyrrol-3-yl)(3,4,5-trimethoxyphenyl)methanone] | > 20000 |  | > 5000 |  |  |  |
